Test results reported in paper PMC11434354, “Metabolic and Pharmacokinetic Profiling Studies of N, N-Dimethylaniline-Heliamine in Rats by UHPLC-Q-Orbitrap MS/MS” (Molecules, 2024).

Assays:
[1] = Long-term storage stability of DH stock solutions; assay type: physicochemical
Protocol: (§1) Although acetonitrile precipitates most of the protein, plasma samples contain phospholipids, metabolites, etc., that interfere with the detection of DH and IS. Specificity was mainly examined at DH and IS retention times without interference peaks in blank plasma. In addition, samples tested after administration should not show interfering peaks at the DH and IS peak times. The standard curves were made up of 8 nonzero analyte points, and the linearity was tested. The correlation of peak area (analyte/IS) with the labeled plasma concentration was plotted for regression analysis. This analyte was predicted to have a correlation coefficient (r^2) of more than 0.99 with the corresponding standard curve. The relative standard deviation (RSD) and relative error (RE) values were calculated by measuring six repeated QC samples on the same day to evaluate the intra-day precision and accuracy. Inter-day precision and accuracy were characterized by RSD and RE, respectively. The recoveries were determined by examining the ratio of the peak areas of DH before and after extraction. The matrix effect is the ratio of the peak area of DH added to plasma and DH dissolved in the solvent. The stability evaluation should guarantee that the concentration of the analyte remains unchanged throughout the sample preparation and analysis process, as well as during storage. Stability studies include long-term storage stability at −80 °C (1, 7 and 15 days); repeated freeze–thaw stability; autosampler stability; room temperature stability; and long-term storage stability of stock solutions.

[2] = Metabolite identification of DH in rat plasma, urine, feces and rat liver microsomes by UHPLC-Q-Orbitrap MS/MS; assay type: in vivo; settings: rat plasma
Protocol: For the analysis of DH metabolites, the same UHPLC-MS/MS system was used for the plasma analysis, and the ACQUIT UHPLC BEH C18 column was also utilized. Mobile phase A consisted of 0.1% formic acid in water (v/v), while mobile phase B comprised acetonitrile. The flow rate was maintained at 0.2 mL/min, with a 10 µL injection volume. The column temperature was kept constant at 35 °C, and the RS autosampler temperature was maintained at 10 °C. The gradient elution was as follows: 0–3 min(5%B), 3–11 min (7%B), 11–18 min (7%B), and 18–45 min (30%B). A full MS/dd MS^2 mode in positive heated electrospray ionization (HESI) with 140,000 (for MS) and 17,500 (for MS/MS) resolutions was used for the Q–Exactive Plus Orbitrap MS. The compounds identified in full MS/dd MS^2 mode will be scanned using PRM scanning. The following MS parameters were employed: AGC target, 1 × 10^6; Maximum IT, 100 ms; Spray voltage, 3.2 kV; Capillary temp, 320 °C; S-lens RF level, 55; HCD Energy 20, 40, and 60.
Rat liver microsomes were used for in vitro experiments to study DH metabolism in rats more quickly and easily. After that, the cofactors of phases I and II were added to create the phase I and phase II metabolic systems. The composition of the reagent kit and the procedure can be found in our previous work.
For the plasma study, 100 µL of plasma was obtained from rats at 0.5, 1, 2, and 4 h after medicine administration. Then, 300 µL of acetonitrile was added to the above plasma, vortexed for 1 min, and centrifuged for 7 min. The supernatant was collected, and the remaining liquid was dried using nitrogen gas at 40 °C. The blow-dried samples were re-dissolved in 100 µL methanol, sonicated for 1 min, and centrifuged for 7 min.
Urine was collected during the period spanning from 0 to 48 h following administration, with each period’s combined urine comprising 10 mL and 30 mL of acetonitrile added thereto. After a 10 min interval of sonication, the urine samples were transferred into 1.5 mL centrifuge tubes, vortexed for 1 min, and then centrifuged at a speed of 14,000 rpm for 10 min. Successively, the supernatant was merged and subjected to drying by nitrogen gas at 40 °C. The blow-dried samples were re-dissolved in 100 µL of methanol, sonicated for 1 min, and centrifuged for 7 min.
For the fecal study, feces were collected within 0–48 h following administration, dried to powder at room temperature in a shaded area, and combined to yield 8 mL per period, to which 40 mL of acetonitrile was added. Following 30 min of sonication, the samples were transferred to 1.5 mL centrifuge tubes and centrifuged at 14,000 rpm for 10 min. The supernatant was collected and dried with nitrogen at 40 °C before analysis via UHPLC-MS/MS. Before analysis, the blow-dried samples were re-dissolved in 100 µL of methanol, sonicated for 1 min, and centrifuged for 7 min.
Compound Discovery 3.3 was used for data processing. The MS spectrometric features mainly include retention time, exact mass, peak intensity, and fragment ions. The data processing mainly included selecting spectra, aligning retention times, creating pattern traces, creating fish traces, generating expected compounds, finding expected compounds, grouping expected compounds, fish scoring, and marking background compounds. The mass tolerance is less than 5 ppm.

[3] = tested on: membrane surface Na^+–Ca^2+ exchange; design: method as in doi:10.13005/bpj/1892; settings: decreases sarcoplasmic reticulum Ca2+ release; cited from earlier work
[4] = Stability of DH in rat plasma samples (autosampler, −80 °C storage, room temperature, freeze–thaw); assay type: in vitro ADME; settings: for Accuracy, 4 h / Accuracy, 8 h / Accuracy, 12 h: autosampler; for Accuracy, Room temper: room temperature; for Accuracy, 1 day / Accuracy, 7 days / Accuracy, 15 days: stored at −80 °C; for Accuracy, Thaw: three freeze–thaw cycles
Protocol: Three concentrations were used to test the stability of plasma samples in a variety of circumstances. […] Its accuracy range was 97.46–109.44%. When samples were stored at −80 °C, the accuracy of the samples ranged from 99.44% to 109.22% at three concentrations on days 1, 7, and 15. The prepared QC samples were placed in the autosampler and injected at 4, 8, and 12 h. The accuracy was calculated to be in the range of 103.34–110.57%. The prepared stability samples were stored at −80 °C and the accuracy range was measured from 97.37% to 104.56% after three sequential freeze–thaw cycles.
DH was added to the blank plasma to produce concentrations of 1, 10, 100, and 500 ng/mL QC samples. Then, 10 µL DH was added to blank plasma and vortexed for 3 s. Next, 10 µL IS was added to the plasma and vortexed for 3 s, while 300 µL of acetonitrile was added to the above plasma, vortexed for 1 min, and centrifuged for 7 min. The mixture supernatant was collected and blown dry at 40 °C under nitrogen. Blow-dried samples were re-dissolved in 100 μL of 30% acetonitrile in water and centrifuged for 7 min.
as §1

[5] = nominal concentration 100 ng/mL
[6] = nominal concentration 500 ng/mL

## COc1cc2c(cc1OC)C(c1ccc(N(C)C)cc1)NCC2 (stereo not drawn) [DH, N, N-dimethylaniline-heliamine]
[1]; nominal concentration 10 ng/mL
  Accuracy, Stock solution: 104.96%
[1]; [5]
  Accuracy, Stock solution: 99.49%
[1]; [6]
  Accuracy, Stock solution: 96.24%
[2]
  Rat and LM* (matrices in which DH or the metabolite was detected): P*, U*, F*, LM*
[3]
  membrane surface Na+–Ca2+ exchange inhibition: inhibitor
[4]; nominal concentration 10 ng/mL
  Accuracy, 4 h: 110.30%
  Accuracy, 8 h: 108.80%
  Accuracy, 12 h: 110.57%
  Accuracy, Room temper: 109.44%
  Accuracy, 1 day: 109.12%
  Accuracy, 7 days: 108.43%
  Accuracy, 15 days: 106.68%
  Accuracy, Thaw: 100.00%
[4]; [5]
  Accuracy, 4 h: 106.65%
  Accuracy, 8 h: 106.69%
  Accuracy, 12 h: 103.81%
  Accuracy, Room temper: 101.36%
  Accuracy, 1 day: 103.58%
  Accuracy, 7 days: 106.23%
  Accuracy, 15 days: 101.13%
  Accuracy, Thaw: 104.56%
[4]; [6]
  Accuracy, 4 h: 105.03%
  Accuracy, 8 h: 103.54%
  Accuracy, 12 h: 103.34%
  Accuracy, Room temper: 97.46%
  Accuracy, 1 day: 99.17%
  Accuracy, 7 days: 105.59%
  Accuracy, 15 days: 94.99%
  Accuracy, Thaw: 97.37%
[4]; kept at room temperature
  time stable in rat plasma samples: at least 12 h
